In PMC9323733, “Efficacy of Vafidemstat in Experimental Autoimmune Encephalomyelitis Highlights the KDM1A/RCOR1/HDAC Epigenetic Axis in Multiple Sclerosis” (Pharmaceutics, 2022):

System: spinal cord and brain of EAE mice
Assay: qRT-PCR validation of microarray biomarkers, spinal cord and brain of EAE mice
Format: in vivo, mouse
Experimental: We evaluated differences in gene expression induced by the treatment using real-time PCR and by microarray hybridization analysis. First, total RNA was isolated from brain and spinal cord segments from EAE mice using Qiazol™ and the RNeasy MiniKit™ extraction kit (Qiagen). Evaluation of RNA quality was performed with the Agilent 2100 bioanalyzer and NanoDrop™ ND-1000 (Thermo Scientific, Dartford, Kent, UK). After DNAse I treatment, RNA (1 µg/sample) was reverse transcribed using RevertAid First strand cDNA Synthesis kit (Fermentas) and random hexamer primers. For evaluating the expression of the inflammatory markers TNFα, IL-1β, IP10, IL-4, and CCL5, real time PCR was performed by using iQ SYBR Green Supermix (Bio-Rad, Feldkirchen, Germany) according to manufacturer’s instructions in a BIORAD CFX96 thermal cycler. Primer sequences and PCR conditions are indicated in Supplementary Materials Table S3. […]
For the gene expression studies, data from microarray assays were normalized by modified nonlinear Q-splines normalization method and Log2(Sample/Vehicle) values calculated without background correction (which permits robust selection of differentially expressed genes yet may lead to sub-estimation of the magnitude of change for genes expressed near the detection limit). Differential expression was assessed with the proprietary Polyphemus software using robust statistics on the average technical replicates (3 replicates/gene oligo datapoint) after removing eventual outlier points (caused by dust or array imperfections). […] The p values were calculated after outlier elimination based on the absolute value of the regularized t-statistics, which uses a Bayesian framework to derive the algorithm, using internal replicated controls to assess the minimum technical variability of the process. Correlation between gene expression changes induced by different treatments was analysed by calculating the Pearson correlation coefficient r using the Log2(Treatment/Veh) values for all genes expressed above background level (n). […]

With Nc1nnc(CN[C@@H]2C[C@H]2c2ccc(OCc3ccccc3)cc2)o1 [ORY-2001] the “Ttr upregulation in spinal cord, check by qRT-PCR” value (increased pooled value came from a single outlier sample) was “discarded as a biomarker”, the “expression of Saa3, Aif1 and Gbp2 (qRT-PCR)” value (spinal cord and brain, effector phase) was “downregulated the inflammatory biomarkers Saa3, Aif1 and Gbp2” and the “expression of Ccl5, Ip10 and Tnf-alpha (qRT-PCR)” value (spinal cord and brain, sub-chronic period) was “downregulated”.
